Results as given in US8506947B2 (priority 1999, dated 2013).
Where two headings read alike, the source gives them in different places.

Key:
[1] = tested on: Murine colon adenocarcinoma cells (MC38 cells); type: cell-based
hepatic metastases = settings: cited from earlier work
[2] = tested on: transduced sarcoma cell line; settings: cited from earlier work
glioma cells = settings: cited from earlier work
sarcoma cells = settings: gpt gene retrovirally transduced; cited from earlier work
melanoma cells = settings: after antibody-β-lactamase conjugate; cited from earlier work
intracerebral gliomas = settings: adenovirus carrying HSV-TK intratumorally, IP GCV twice daily for 6 days; cited from earlier work
[3] = tested on: subcutaneous tumors (glioma-breast cancer) retrovirally transduced with CYP2B1; settings: single IP injection of cyclophosphamide; cited from earlier work

SMILES: Nc1nc(=O)[nH]cc1F [5-FC, 5-fluorocytosine]
- cells killed as a result of the 5-FC exposure [1]: ~100%
- effect of the 5-FC exposure on cells [1]: not affected

SMILES: Cc1ncnc2c1ncn2[C@H]1C[C@H](O)[C@@H](CO)O1 [6-MPDR, 6-methylpurine deoxyriboside]
- cure rate (hepatic metastases; every other daily injections of 6-MPDR): 50%
- cure rate (hepatic metastases; weekly injections of 6-MPDR): 30%

SMILES: O=c1[nH]c(=S)c2[nH]cnc2[nH]1 [6-TX, 6-thioxanthine]
- treatment mortality due to toxicity of the converted prodrug ([2]; 5 days of treatment with 6-TX): 10%
- complete regression, share of the animals ([2]; after 5 days of treatment with 6-TX): 95%
- LD50 (glioma cells; glioma cells transduced with gpt): 2.5 µmol/L
- sensitivity of untransfected cells (glioma cells; untransfected cells at 50 umol/L): minimally sensitive
- increased sensitivity (sarcoma cells): 86 fold

SMILES: COc1cccc2c1C(=O)c1c(O)c3c(c(O)c1C2=O)C[C@@](O)(C(=O)CO)C[C@@H]3O[C@H]1C[C@H](NC(=O)OCC2=C(C(=O)O)N3C(=O)[C@@H](NC(=O)Cc4ccccc4)[C@H]3SC2)[C@H](O)[C@H](C)O1 [C-Dox, cephalosporin-doxorubicin]
- increase in the sensitivity of cells to the prodrugs (melanoma cells): 4 fold

SMILES: Nc1nc(O)c2ncn(COC(CO)CO)c2n1 [GCV, Gancyclovir]
- complete regressions (intracerebral gliomas): 2
- decrease in tumor size compared to controls (intracerebral gliomas): 23 fold

SMILES: O=P1(N(CCCl)CCCl)NCCCO1 (stereo not shown) [cyclophosphamide]
- complete inhibition of tumors, share of animals [3]: 95%
